Assay results published in patent publication US9629822B2, “Flavonoid based antiviral targets” (UNIVERSITY OF CENTRAL FLORIDA RESEARCH FOUNDATION, INC., priority 2012, dated 2017).
Like-named read-outs stand apart in the source and are kept apart here.

Experiments:
[1] = TZMbI assay for cell safety (cell viability and growth, CytoTox Glo); settings: human, TZMbI cells, read-out: % decrease in viability compared to 0.1% DMSO vehicle based on viable cell luminescence
Experimental: Assays were performed below in accordance with the procedures set forth in The Journal of Immunology, 2006, 176, pp. 6900-905; AIDS Research and Human Retroviruses, 2004, 20:11, pp. 1157-1665.^32,33 TZMbI assays for cell safety were performed to identify potential anti-viral compounds. TZMbI assays for cell safety were performed to identify potential anti-viral compounds per the methods.

[2] = test system: mock transfected 293T HEK cells; assay: PathDetect Elk1 luminescence in mock transfected (empty pcDNA3 vector) 293T HEK cells, off-target effect; assay type: cell-based, human; settings: 10 μM vs 1% DMSO control, Equation 1; for activation at 10 µM: Homo sapiens, read-out: Effect(%) on mock cells with each drug at 10 μM
Experimental: As a control, the empty pcDNA3 plasmid vector and the components of PathDetect system were also used for mock transfection of 293T HEK cells. Controls containing 1% DMSO were run in parallel. The relative luminescence results found with mock transfected 293T HEK cells treated with 10 μM drug and the untreated 1% DMSO control were compared via the following Equation 1. % Effect on mock cells=(100%×(mock cell luminescence/DMSO control luminescence))−100% Equation (1)
This equation was derived in order to assess the net effect each compound had on non-US28 containing HEK cells transfected via the same protocol. These control experiments were critical as they provided a method to address off target effects such as compound toxicity, which could give rise to false positives in the PathDetect assay.
Compounds, which had no off-target effects, gave nearly identical luminescence values in both the mock cells and the 1% DMSO control (i.e., a mock cell luminescence/DMSO control luminescence ratio of 1) and a net effect of 0% via Equation 1 (e.g., 9j: 0% in Table 1). In contrast, compounds that were stimulatory to the treated HEK cells gave higher mock cell luminescence than the DMSO control, a ratio >1, and a net positive value in Equation 1 for the % effect on mock cells (e.g., 8f: 290%). On the other hand, compounds that were intrinsically toxic gave lower luminescence in the treated mock cells than the DMSO control, a ratio below 1, and a net negative value for the % effect on mock cells (e.g., 8d: ˜42%).
(§1) The efficacy of each compound on the US28 receptor was investigated in luciferase based reporter gene assay PathDetect trans Elk1 (Agilent, Stratagene)^23 as described previously.^13 Briefly, the human embryonic kidney (HEK) 293T cells were transiently-transfected with 0.1 μg Elk1, 5 μg Luc, and 5 μg of US28 vector or empty pcDNA3 vector (mock cells). Five hours after transfection, the cells were washed with DMEM containing 1% FBS, harvested, seeded in a white half-area 96-well plate (20,000 cells/well) and incubated with the indicated concentrations of test compounds. The incubation buffer consisted of DMEM, 1% FBS, 2 mM L-glutamine, 1% penicillin-streptomycin and 1% DMSO. The cells were incubated at 37° C. in the humid atmosphere with 5% CO2 for an additional 20-24 hours. The luciferase substrate BrightGlo (Promega) was used according to the manufacturer's instruction. The luminescence intensity was acquired using microplate reader Victor3V (Perkin-Elmer). The basal luminescence of mock transfected cells was approximately 500 RLU and the basal luminescence of US28-transfected cells was 4-5-fold higher (2000-2500 RLU). As the inhibitors gave differential responses in terms of their ability to reduce US 28 mediated signaling, their relative EC50 values were determined by dosing the US-28 transfected HEK cells with increasing concentrations of each compound. In this case, the EC50 value is the concentration of the compound needed to provoke a response halfway between the compound's maximal response (change in luminescence) and the no-compound control in the same US-28 transfected cell line. A plot of relative luminescence versus log of the compound concentration provided a dose-response curve from which the % efficacy was derived via non-linear regression methods using the algorithms in PRISM 5.0 (GraphPad Software, San Diego, Calif.).

HIV-1 BaL = assay: Anti-HIV assay (luciferase, HIV-1 BaL infection); assay type: cell-based
Experimental: Assays were performed below in accordance with the procedures set forth in The Journal of Immunology, 2006, 176, pp. 6900-905; AIDS Research and Human Retroviruses, 2004, 20:11, pp. 1157-1665.^32,33 Cells were treated with 2 ng/mL p24 of HIV-1 BaL administered; MOI approx 0.02 (see refs 32, 33). Cells were treated with 2 ng/mL p24 of HIV-1 BaL administered; MOI approx 0.02 (see refs 32, 33).

CHO cells = assay: CHO cell toxicity, MTS assay, 48 h; assay type: cell-based, Chinese hamster; settings: Cricetulus griseus, CHO, 37° C., MTS reagent, read-out: CHO 48 h IC50 value
Experimental: In each case, the chalcone system 8 was more toxic than the corresponding ring-closed system, 9.
The CHO assay was conducted to assess the general toxicity of each flavonoid drug. Briefly, cell growth was assayed in sterile 96-well microtiter plates (Costar 3599, Corning, N.Y., USA) in the presence of each drug. Experiments were conducted in triplicate. CHO cells were plated at 10,000 cells/mL. Drug solutions were prepared in 100% DMSO and dosed so that the final DMSO concentration was <1%. For example, 1 μL of drug solution was added to the CHO cells plated in each well in 100 μL of media. Drug additions occurred after an initial overnight incubation of CHO cells in each well. After drug was added, the cells were incubated in 5% CO2 for 48 h at 37° C. The MTS reagent (Promega Cell Titer 96 Aqueous non-radioactive cell proliferation reagent) was added (20 μL) and the CHO cells were incubated for an additional 4h and then absorbance at 490 nm was measured on a BioTek Synergy MX plate reader. […] IC50 values were determined from the corresponding plot of relative absorbance at 490 nm vs drug concentration.

US28 receptor = target: T1, US28 receptor (Human cytomegalovirus, UniProt P69332); assay: PathDetect trans Elk1 luciferase reporter gene assay in US28-transfected 293T HEK cells; assay type: cell-based, Human Cytomegalovirus (HCMV); settings: for EC50: 293T HEK cells transiently expressing US28, Elk1 reporter; for Efficacy(%): maximum intrinsic activity from dose-response curve; for Efficacy(%) / Emax: negative = inverse agonism; for Emax: read-out: Efficacy(%), maximum intrinsic activity from dose-response curve; for type of activity on the US28 receptor (agonist / inverse agonist / none), in words: Elk1 reporter, US28-transfected HEK cells
T1 construct: expressed in transfected cells; host or cells: HEK 293T cells, transiently transfected
T1 sequence (P69332 whole entry): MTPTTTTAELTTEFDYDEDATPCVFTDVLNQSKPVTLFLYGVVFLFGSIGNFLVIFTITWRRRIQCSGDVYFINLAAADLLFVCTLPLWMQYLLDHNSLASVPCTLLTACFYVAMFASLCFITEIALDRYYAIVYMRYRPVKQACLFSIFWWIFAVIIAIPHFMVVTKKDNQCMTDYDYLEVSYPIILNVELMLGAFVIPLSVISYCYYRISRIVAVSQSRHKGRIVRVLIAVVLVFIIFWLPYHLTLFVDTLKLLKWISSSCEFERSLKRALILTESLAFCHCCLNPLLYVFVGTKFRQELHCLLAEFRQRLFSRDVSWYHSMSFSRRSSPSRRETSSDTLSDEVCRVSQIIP
Description: Having generated a homologous series of chalcones and flavones, their ability to interact with the US28 receptor in human embryonic kidney (HEK) cells was investigated using an Elk-1 gene reporter assay (FIG. 2). HEK cells were transfected with either an empty vector (i.e., mock cells) or with a vector carrying US 28. These matched HEK cells provided a means to evaluate off-target effects as well as innate drug toxicity. As many of the flavonoid drugs were not water-soluble, all drug stock solutions were made in 100% dimethylsulfoxide (DMSO). The final DMSO concentration for each cell-based experiment, however, was 1% DMSO. To account for the presence of DMSO, 1% DMSO controls were run in parallel. […] values of the homologous series were also determined in Chinese hamster ovary (CHO) cells in order to assess the relative toxicities of each member of the series in a different cell line (see Table 1).
Interaction with the US28 receptor was measured by a decrease in luminescence using a firefly (Photinus pyralis) luciferase-based PathDetect Elk1 gene reporter assay (FIG. 2).^23,24 This assay assessed the modulation of US28-mediated activation of mitogen-activated protein kinase (MAPK) signaling pathways (results are shown in Table 1). […] Such compounds which reduce MAPK signaling will have direct utility in the treatment of proliferative disorders including but not limited cancer.
After transfection the US28 is expressed and activates MAPK. The MAPK phosphorylates the activator domain of the GAL4dbd/Elk1 fusion protein, and causes its dimerization. The dimer then binds to the GAL4 UAS region of the reporter gene and allows for luciferase transcription. The luciferase mRNA is then translated and the luciferase protein is detected via luminescence by the use of the Bright-Glo reagent.
as §1

[3] = 10 μM, Experiment 1B, 2 ng/mL p24 HIV-1 BaL
[4] = Human immunodeficiency virus 1, BAL, 10 μM, Experiment 1B, 2 ng/mL p24 HIV-1 BaL
[5] = EC50 (μM), NE = no effect when tested at 10 μM of compound
[6] = NE = no effect when tested at 10 μM of compound

Structure (SMILES)	cytotoxicity at 10 μM ([1]; Experiment 1A)	activation at 10 µM [2]	RLU (relative luciferase units) (HIV-1 BaL; [3])	inhibition at 10 µM (HIV-1 BaL; [4])	IC50 (CHO cells)	EC50 (US28 receptor; [5])	Efficacy(%) (US28 receptor)	Emax (US28 receptor)	type of activity on the US28 receptor (agonist / inverse agonist / none), in words (US28 receptor)	melting point	also measured
COc1ccc(Br)cc1/C=C/C(=O)c1c(O)cccc1OC [Compound 8f, (E)-3-(5-bromo-2-methoxyphenyl)-1-(2-hydroxy-6-methoxyphenyl)prop-2-en-1-one]	91.3%	290%	45.9 RLU	95.1%	6.1 ± 0.8 µM	6 µM	~95%	~95%			Effect(%) on mock cells with each drug at 10 μM [2]: 290%
COc1ccc(Br)cc1C1CC(=O)c2ccccc2O1 (centres unmarked) [Compound 13b, 2-(5-Bromo-2-methoxyphenyl)chroman-4-one]	-9.1%	-5%	884.5 RLU	2.8%	67.9 ± 9.3 µM	> 10 µM			did not have any significant effect		EC50 (US28 receptor; [6]): > 10 µM
CCOc1ccc(Cl)cc1-c1oc2ccccc2c(=O)c1O [Compound 9i, 2-(5-chloro-2-ethoxyphenyl)-3-hydroxy-4H-chromen-4-one]	21.8%		361.0 RLU	61.4%	> 100 µM			-41%	inhibited US28 activity	156 to 159 °C	cytotoxicity at 1.25 μM ([1]; 1.25 μM, Experiment 2A): 10.8%; cytotoxicity at 2.5 μM ([1]; 2.5 μM, Experiment 2A): 6.19%; cytotoxicity at 5 μM ([1]; 5 μM, Experiment 2A): 10.7%; cytotoxicity at 10 μM ([1]; Experiment 2A): 18.7%; cytotoxicity at 20 μM ([1]; 20 μM, Experiment 2A): 21.6%; RLU (relative luciferase units) (HIV-1 BaL; 1.25 μM, Experiment 2B): 254.23 RLU; RLU (relative luciferase units) (HIV-1 BaL; 2.5 μM, Experiment 2B): 238.44 RLU; RLU (relative luciferase units) (HIV-1 BaL; 5 μM, Experiment 2B): 204.06 RLU; RLU (relative luciferase units) (HIV-1 BaL; 10 μM, Experiment 2B): 159.94 RLU; RLU (relative luciferase units) (HIV-1 BaL; 20 μM, Experiment 2B): 81.12 RLU; inhibition at 1.25 µM (HIV-1 BaL; Human immunodeficiency virus 1, BAL, 1.25 μM, Experiment 2B): 2.53%; inhibition at 2.5 µM (HIV-1 BaL; Human immunodeficiency virus 1, BAL, 2.5 μM, Experiment 2B): 8.25%; inhibition at 5 µM (HIV-1 BaL; Human immunodeficiency virus 1, BAL, 5 μM, Experiment 2B): 26.1%; inhibition at 10 µM (HIV-1 BaL; Human immunodeficiency virus 1, BAL, 10 μM, Experiment 2B): 41.5%; inhibition at 20 µM (HIV-1 BaL; Human immunodeficiency virus 1, BAL, 20 μM, Experiment 2B): 74.6%; EC50 (US28 receptor; pEC50 ± SEM): 0.309 µM
COc1ccc(Cl)cc1/C=C/C(=O)c1ccccc1O [Compound 8h, (E)-3-(5-chloro-2-methoxyphenyl)-1-(2-hydroxyphenyl)prop-2-en-1-one]	98.9%		33.8 RLU	96.4%	8.4 ± 0.6 µM	7.8 µM	~58%	~58%		81 to 82 °C	
COc1cc(Br)cc(/C=C/C(=O)c2ccccc2O)c1OC [Compound 8d, (E)-3-(5-bromo-2,3-dimethoxyphenyl)-1-(2-hydroxyphenyl)prop-2-en-1-one]	72.9%		134.6 RLU	85.8%	7.2 ± 0.4 µM	6.7 µM	~52%	~52%		122 to 124 °C	EC50 (US28 receptor; pEC50 ± SEM): 6.61 µM
COc1ccc(Br)cc1-c1cc(=O)c2ccccc2o1 [Compound 11d, 2-(5-Bromo-2-methoxyphenyl)-4H-chromen-4-one]	23.6%		576.3 RLU	38.4%	> 100 µM	8.1 µM	−55%	-55%	inverse agonism	161 to 164 °C	
COc1ccccc1-c1cc(=O)c2ccccc2o1 [Compound 11c, 2-(2-Methoxyphenyl)-4H-chromen-4-one]	39.5%	3%	235.6 RLU	74.8%	64.8 ± 8.1 µM	> 10 µM			inactive ligand		EC50 (US28 receptor; [6]): > 10 µM
